We go through 24 compounds from patent US8975398B2, “NAMPT inhibitors” (AbbVie Inc., priority 2012, dated 2015).

Some results are limits rather than exact numbers.

The test deals with PC3 cells. Kind of test: NAMPT Cell Proliferation Assay (Cell Titer Glo; also performed in the presence of 0.3 mM nicotinamide mononucleotide). It is filed as cell-based. Particulars: Homo sapiens, PC-3, 120 h, 5 days incubation, cell viability by Cell Titer Glo. How it is done: NAMPT Cell Proliferation Assay
PC3 cells were seeded in 96-well black plates (Corning #3904) at 500 cells/well in 90 μl of RPMI media containing 10% heat-inactivated FBS and incubated overnight at 37° C. and 5% CO2 to allow cells to attach to wells. The following day, test compounds were serially diluted in neat DMSO to 1000× final concentrations prior to dilution with RPMI media to 10× and 1% DMSO. Ten μL of the 10× compounds were then transferred to wells containing cells to produce a dose response of 10-fold dilutions from 10 μM to 1×10^−5 μM. Cells were incubated for 5 days at 37° C. and 5% CO2, then cell viability was measured using Cell Titer Glo reagent (Promega #G7571). Percent inhibition values were calculated and fitted to a sigmoidal dose response curves using Assay Explorer software to determine IC50s.

As usually defined, the IC50 is the concentration needed to halve the response being measured. Turning to `Cc1ccc(N2CC(C(=O)Nc3ccc(-c4cnn(CC5(C)CCOCC5)c4)cc3)C2)nn1` [Example 891, 1-(6-methylpyridazin-3-yl)-N-(4-{1-[(4-methyltetrahydro-2H-pyran-4-yl)methyl]-1H-pyrazol-4-yl}phenyl)azetidine-3-carboxamide], the IC50 came out at 65.6 nM.

For the compound `Cc1ccc(N2CC[C@H](C(=O)Nc3ccc(C4CCN(C(=O)c5ccccc5F)CC4)cc3)C2)nn1` [Example 892, (3S)—N-{4-[1-(2-fluorobenzoyl)piperidin-4-yl]phenyl}-1-(6-methylpyridazin-3-yl)pyrrolidine-3-carboxamide], the IC50 was found to be 146 nM.

For `Cc1ccc(N2CC[C@H](C(=O)Nc3ccc(C4CCN(C(=O)c5ccccc5)CC4)cc3)C2)nn1` [Example 893, (3S)—N-[4-(1-benzoylpiperidin-4-yl)phenyl]-1-(6-methylpyridazin-3-yl)pyrrolidine-3-carboxamide], the IC50 worked out at 681 nM.

With `Cc1ccc(N2CC[C@H](C(=O)Nc3ccc(C4CCN(C(=O)C(C)(C)C)CC4)cc3)C2)nn1` [Example 894, (3S)—N-{4-[1-(2,2-dimethylpropanoyl)piperidin-4-yl]phenyl}-1-(6-methylpyridazin-3-yl)pyrrolidine-3-carboxamide], the IC50 came to 752 nM.

Take `O=C(Nc1ccc(CC2CCN(C(=O)c3ccccc3)CC2)cc1)C1CN(c2cccnn2)C1` [Example 895, N-{4[(1-benzoylpiperidin-4-yl)methyl]phenyl}-1-(pyridazin-3-yl)azetidine-3-carboxamide]: the IC50 was found to be 2.15 nM.

For `O=C(Nc1ccc(CC2CCN(C(=O)c3ccccc3F)CC2)cc1)C1CN(c2cccnn2)C1` [Example 896, N-(4-{[1-(2-fluorobenzoyl)piperidin-4-yl]methyl}phenyl)-1-(pyridazin-3-yl)azetidine-3-carboxamide], the IC50 is 1.09 nM.

Consider `CC(C)(C)C(=O)N1CCC(Cc2ccc(NC(=O)C3CN(c4cccnn4)C3)cc2)CC1` [Example 897, N-(4-{[1-(2,2-dimethylpropanoyl)piperidin-4-yl]methyl}phenyl)-1-(pyridazin-3-yl)azetidine-3-carboxamide], for which the IC50 is 1.56 nM.

In the case of `CC(C)(C)CC(=O)N1CCC(Cc2ccc(NC(=O)C3CN(c4cccnn4)C3)cc2)CC1` [Example 898, N-(4-{[1-(3,3-dimethylbutanoyl)piperidin-4-yl]methyl}phenyl)-1-(pyridazin-3-yl)azetidine-3-carboxamide], the half-maximal inhibitory concentration (IC50) stood at 0.851 nM.

Turning to `CCC(CC)C(=O)N1CCC(Cc2ccc(NC(=O)C3CN(c4cccnn4)C3)cc2)CC1` [Example 899, N-(4-{[1-(2-ethylbutanoyl)piperidin-4-yl]methyl}phenyl)-1-(pyridazin-3-yl)azetidine-3-carboxamide], the IC50 came out at 0.401 nM.

As for `O=C(Nc1ccc(CC2CCN(C(=O)CCC(F)(F)F)CC2)cc1)C1CN(c2cccnn2)C1` [Example 900, 1-(pyridazin-3-yl)-N-(4-{[1-(4,4,4-trifluorobutanoyl)piperidin-4-yl]methyl}phenyl)azetidine-3-carboxamide], the IC50 was 2.24 nM.

`CC(C)C(=O)N1CCC(Cc2ccc(NC(=O)C3CN(c4cccnn4)C3)cc2)CC1` [Example 901, N-(4-{[1-(2-methylpropanoyl)piperidin-4-yl]methyl}phenyl)-1-(pyridazin-3-yl)azetidine-3-carboxamide]: the IC50 is 2.07 nM.

Consider `CC(=O)N1CCC(Cc2ccc(NC(=O)C3CN(c4cccnn4)C3)cc2)CC1` [Example 902, N-{4-[(1-acetylpiperidin-4-yl)methyl]phenyl}-1-(pyridazin-3-yl)azetidine-3-carboxamide], for which the IC50 is 6.45 nM.

`CC[C@H](C)C(=O)N1CCC(Cc2ccc(NC(=O)C3CN(c4cccnn4)C3)cc2)CC1` [Example 903, N-[4-({1-[(2S)-2-methylbutanoyl]piperidin-4-yl}methyl)phenyl]-1-(pyridazin-3-yl)azetidine-3-carboxamide]: the IC50 stood at 0.618 nM.

For `CC1(C(=O)N2CCC(Cc3ccc(NC(=O)C4CN(c5cccnn5)C4)cc3)CC2)CC1` [Example 904, N-[4-({1-[(1-methylcyclopropyl)carbonyl]piperidin-4-yl}methyl)phenyl]-1-(pyridazin-3-yl)azetidine-3-carboxamide], the IC50 came to 1.95 nM.

Consider `Cc1ccc(N2CC(C(=O)Nc3ccc(-c4cnn(CC5(C)CCN(C6COC6)CC5)c4)cc3)C2)nn1` [Example 905, N-[4-(1-{[4-methyl-1-(oxetan-3-yl)piperidin-4-yl]methyl}-1H-pyrazol-4-yl)phenyl]-1-(6-methylpyridazin-3-yl)azetidine-3-carboxamide], for which the IC50 was determined as 13.3 nM.

Take `Cc1ccnnc1N1CC(C(=O)Nc2ccc(C3CCN(C(=O)c4ccccc4)CC3)cc2)C1` [Example 906, N-[4-(1-benzoylpiperidin-4-yl)phenyl]-1-(4-methylpyridazin-3-yl)azetidine-3-carboxamide]: the IC50 is 0.879 nM.

Consider `O=C(N[C@H]1CCN(c2cccnn2)C1)c1ccc(C2CCN(C(=O)c3ccccc3F)CC2)o1` [Example 907, 5-[1-(2-fluorobenzoyl)piperidin-4-yl]-N-[(3S)-1-(pyridazin-3-yl)pyrrolidin-3-yl]furan-2-carboxamide], for which the IC50 came to 6750 nM.

Take `Cc1nnccc1N1CC(C(=O)Nc2ccc(C3CCN(C(=O)c4ccccc4)CC3)cc2)C1` [Example 908, N-[4-(1-benzoylpiperidin-4-yl)phenyl]-1-(3-methylpyridazin-4-yl)azetidine-3-carboxamide]: the IC50 is 92.5 nM.

Consider `Cc1nnccc1N1CC(C(=O)Nc2ccc(C3CCN(C(=O)c4ccccc4F)CC3)cc2)C1` [Example 909, N-{4-[1-(2-fluorobenzoyl)piperidin-4-yl]phenyl}-1-(3-methylpyridazin-4-yl)azetidine-3-carboxamide], for which the IC50 turned out to be 67 nM.

As to `Nc1ncccc1C(=O)N1CCC(c2ccc(NC(=O)C3CN(c4cccnn4)C3)cc2)CC1` [Example 910, N-(4-{1-[(2-aminopyridin-3-yl)carbonyl]piperidin-4-yl}phenyl)-1-(pyridazin-3-yl)azetidine-3-carboxamide], the IC50 was found to be 6.51 nM.

With `Cn1nc(C(=O)O)cc1-c1ccc(NC(=O)C2CN(c3cccnn3)C2)cc1` [Example 911, 1-methyl-5-[4-({[1-(pyridazin-3-yl)azetidin-3-yl]carbonyl}amino)phenyl]-1H-pyrazole-3-carboxylic acid], the IC50 was above 10000 nM.

With `CCOC(=O)c1cc(-c2ccc(NC(=O)C3CN(c4cccnn4)C3)cc2)n(C)n1` [Example 912, ethyl 1-methyl-5-[4-({[1-(pyridazin-3-yl)azetidin-3-yl]carbonyl}amino)phenyl]-1H-pyrazole-3-carboxylate], the IC50 was determined as 64.2 nM.

With `CCOC(=O)c1cc(-c2ccc(NC(=O)C3CN(c4cccnn4)C3)cc2)n(-c2ccccc2)n1` [Example 913, ethyl 1-phenyl-5-[4-({[1-(pyridazin-3-yl)azetidin-3-yl]carbonyl}amino)phenyl]-1H-pyrazole-3-carboxylate], the IC50 is 66.3 nM.

As for `O=C(Nc1ccc(C2CCN(C(=O)c3ccccc3F)CC2)nc1)C1CN(c2cccnn2)C1` [Example 914, N-{6-[1-(2-fluorobenzoyl)piperidin-4-yl]pyridin-3-yl}-1-(pyridazin-3-yl)azetidine-3-carboxamide], the IC50 came out at 2.7 nM.
